Results reported in ChEMBL document CHEMBL1201862, “PubChem BioAssay data set” (2004).
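A five-concentration, 48-hour dose response in 96-well plates underlies each endpoint, interpolated linearly between surrounding concentrations. GI50: concentration for 50% inhibition of growth.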 Calls of active or inactive are those of the source. Rule as the data show it: active = GI50 up to about 1.1 µM and inactive = higher.

Columns and labels:
Assay in all cases: DTP human tumour cell line panel, 48 h
[1] = test system: K562
[2] = test system: UACC-257
[3] = test system: HCT-15
[4] = test system: COLO 205
[5] = test system: SR
[6] = test system: HOP-92
[7] = test system: SF-295
[8] = test system: SNB-78
[9] = test system: M19-MEL
[10] = test system: MOLT-4
[11] = test system: DMS-114
[12] = test system: XF498
[13] = test system: NCI/ADR-RES
[14] = test system: MCF7

SMILES | GI50 [1] | GI50 [2] | GI50 [3] | GI50 [4] | GI50 [5] | GI50 [6] | GI50 [7] | GI50 [8] | GI50 [9] | GI50 [10] | GI50 [11] | GI50 [12] | GI50 [13] | GI50 [14]
CCCCCCCCC[C@@H]1C[C@H](O)[C@H](Cc2ccccc2)N1C(=O)OC(C)(C)C | 37.4 µM (inactive) | 15.8 µM (inactive) | 18.6 µM | 17 µM (inactive) | 18.2 µM (inactive) | 15 µM (inactive) | 15.8 µM (inactive) | 22.8 µM (inactive) | 16.8 µM (inactive) | 36.5 µM (inactive) | 16.9 µM (inactive) | 22.2 µM (inactive) |  | 
COC(=O)[C@@H]1c2cc3c(c(O)c2[C@@H](OC)C[C@@]1(C)O)C(=O)c1c(O)cc2c(c1C3=O)OC1O[C@@]2(C)[C@H](O)[C@@H](N(C)C)[C@@H]1O | 0.322 µM (active) | 0.337 µM (active) | 0.597 µM | 0.257 µM (active) |  | 0.0764 µM (active) | 0.213 µM (active) | 0.552 µM (active) | 0.266 µM (active) | 0.143 µM (active) | 0.217 µM (active) | 0.179 µM (active) | 2.06 µM (inactive) | 2.72 µM (inactive)
CC(C)CCC1CC2C(=O)N(c3ccccc3)C(=O)C2c2[nH]c3ccccc3c21 (stereo not given) | 0.571 µM (active) |  | 2.71 µM | 1.38 µM (inactive) | 3.4 µM (inactive) |  | 0.509 µM (active) | 3.45 µM (inactive) | 5.2 µM (inactive) | 2.77 µM (inactive) | 0.6 µM (active) | 0.206 µM (active) |  | 
COc1cc(C(C)c2cc3c(cc2OCCO)OCO3)cc(OC)c1OC (stereo not given) | 0.486 µM (active) | 7.16 µM (inactive) | 0.824 µM | 1.34 µM (inactive) | 0.299 µM (active) |  | 0.413 µM (active) | 12.2 µM (inactive) | 1.66 µM (inactive) | 0.935 µM (active) | 0.562 µM (active) | < 0.01 µM (active) |  | 
CC(=O)N(CCN1C(=O)c2ccccc2C1=O)CCN1C(=O)c2ccccc2C1=O | > 100 µM (inactive) | > 100 µM (inactive) | > 100 µM | > 100 µM (inactive) | > 100 µM (inactive) | > 100 µM (inactive) | > 100 µM (inactive) | > 100 µM (inactive) | > 100 µM (inactive) | > 100 µM (inactive) | > 100 µM (inactive) | > 100 µM (inactive) |  | 
C[C@H]1[C@@H]2C[C@@H]3O[C@@]34[C@H]3CCC5Cc6nc7c(nc6C[C@@]5(C)[C@]3(O)CC(=O)[C@@]24CO[C@]12OC(C)(C)C[C@@H]2O)CC1CC[C@@H]2C3=C[C@H]4O[C@@]5(OC(C)(CO)C[C@@H]5O)[C@H](C)[C@@]4(O)[C@]3(C)[C@@H](O)CC2[C@]1(C)C7 (stereo not given in full) | 0.0266 µM (active) | 0.139 µM (active) | 0.121 µM | 0.0655 µM (active) |  | 0.0254 µM (active) | 0.00215 µM (active) | 0.00792 µM (active) | 2.77 µM (inactive) |  | 0.0119 µM (active) | 0.00769 µM (active) | > 3.52 µM (inactive) | 0.0345 µM (active)
Cn1c2ccccc2c(=O)c2c(O)cc3c(c21)C=CC(C)(C)O3 [NORACRONYCINE] | > 25 µM (inactive) | > 25 µM (inactive) | > 25 µM | > 25 µM (inactive) |  | > 25 µM (inactive) | > 25 µM (inactive) | > 25 µM (inactive) | > 25 µM (inactive) | 6.28 µM (inactive) | > 25 µM (inactive) | > 25 µM (inactive) | > 25 µM (inactive) | > 25 µM (inactive)
CCC1CN2CCC1CC2 (stereo not given) | > 100 µM (inactive) | > 91.4 µM (inactive) | > 100 µM | > 100 µM (inactive) |  |  | > 100 µM (inactive) | > 100 µM (inactive) | > 100 µM (inactive) | > 100 µM (inactive) | > 100 µM (inactive) | > 100 µM (inactive) | > 100 µM (inactive) | > 100 µM (inactive)
COc1c(Cl)cc(S(=O)O)cc1Cl | > 100 µM (inactive) | > 100 µM (inactive) |  |  |  |  |  | > 100 µM (inactive) | > 100 µM (inactive) | > 100 µM (inactive) | > 100 µM (inactive) | > 100 µM (inactive) |  | 
O=C(O)CCCCCCCCC(=O)O [SEBACIC ACID] | > 500 µM (inactive) | 108 µM (inactive) | 99.1 µM | > 79.3 µM (inactive) |  | 5 µM (inactive) | 79.3 µM (inactive) | > 500 µM (inactive) | > 79.3 µM (inactive) | > 500 µM (inactive) | 50 µM (inactive) | 3.62 µM (inactive) | > 79.3 µM (inactive) | > 377 µM (inactive)
